Here are results for five molecules from publication PMC12136037, “Type II kinase inhibitors that target Parkinson’s disease–associated LRRK2” (Science Advances, 2025).

“And” between values parts separate entries of the source, which are not always exact repeats. Identical values can stand only once.

One may read the IC50 as the concentration at which inhibition is half-maximal.

The target of assay [1] is T1, ~100 representative kinases (Homo sapiens, UniProt O94804).
T1 construct: Recombinant protein kinase domains with a concentration of 2 μM
Briefly: DSF 100 kinase selectivity screen.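 Note: compound tested at 20 µM.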 The format is binding. The conditions noted are these: Protein STK10; DSF; average of three replicates. The procedure:
(§1) Recombinant protein kinase domains with a concentration of 2 μM were mixed with a 20 μM compound solution in dimethyl sulfoxide (DMSO), 20 mM Hepes (pH 7.5), and 500 mM NaCl. SYPRO Orange (5000×, Invitrogen) was added as a fluorescence probe (1μl/ml). Subsequently, temperature-dependent protein unfolding profiles were measured using the QuantStudio 5 realtime PCR machine (Thermo Fisher Scientific, Waltham, MA, USA). […] The temperature was raised with a step rate of 3°C/min. […] Differences in melting temperature are given as ΔTm values in degrees Celsius. […]

The target in assay [2] is T2, ~100 representative kinases (Homo sapiens, UniProt Q9Y6E0).
T2 construct: Recombinant protein kinase domains with a concentration of 2 μM
Briefly: DSF 100 kinase selectivity screen.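 Note: compound tested at 20 µM.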 The format is binding. As to conditions: protein MST3; average of three replicates. The procedure:
as §1

Assay [3] addresses T3, ~100 representative kinases (Homo sapiens, UniProt O15264).
T3 construct: Recombinant protein kinase domains with a concentration of 2 μM
T3 sequence (O15264 1-365): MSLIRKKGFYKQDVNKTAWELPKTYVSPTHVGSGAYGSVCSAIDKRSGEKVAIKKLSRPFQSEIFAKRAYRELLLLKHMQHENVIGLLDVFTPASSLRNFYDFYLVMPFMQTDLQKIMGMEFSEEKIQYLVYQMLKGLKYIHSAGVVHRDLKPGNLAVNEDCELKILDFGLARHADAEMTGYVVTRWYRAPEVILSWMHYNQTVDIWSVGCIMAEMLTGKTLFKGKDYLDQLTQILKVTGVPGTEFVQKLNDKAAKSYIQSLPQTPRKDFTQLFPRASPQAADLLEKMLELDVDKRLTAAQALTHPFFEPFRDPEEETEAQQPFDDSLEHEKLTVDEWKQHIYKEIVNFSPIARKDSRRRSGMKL
The assay can be described thus: DSF 100 kinase selectivity screen.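 Note: compound tested at 20 µM.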 The format is binding. The conditions noted are these: protein MAPK13; average of three replicates. As for the experimental part: as §1

For assay [4], the target named is T4, ~100 representative kinases (Homo sapiens, UniProt Q13627).
T4 construct: Recombinant protein kinase domains with a concentration of 2 μM
Briefly: DSF 100 kinase selectivity screen.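 Note: compound tested at 20 µM.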 As to conditions: Protein DYRK1A; average of three replicates. It is filed as binding. The procedure:
as §1

Assay [5] has as its target T5, LRRK2^RCKW (Homo sapiens, UniProt Q5S007).
T5 construct: LRRK2 R1327 to E2527; His6-Z-tag (TEV cleavable) (N, cleaved yes); host or cells: Sf9 insect cells (baculovirus)
T5 sequence (Q5S007 1327-2527): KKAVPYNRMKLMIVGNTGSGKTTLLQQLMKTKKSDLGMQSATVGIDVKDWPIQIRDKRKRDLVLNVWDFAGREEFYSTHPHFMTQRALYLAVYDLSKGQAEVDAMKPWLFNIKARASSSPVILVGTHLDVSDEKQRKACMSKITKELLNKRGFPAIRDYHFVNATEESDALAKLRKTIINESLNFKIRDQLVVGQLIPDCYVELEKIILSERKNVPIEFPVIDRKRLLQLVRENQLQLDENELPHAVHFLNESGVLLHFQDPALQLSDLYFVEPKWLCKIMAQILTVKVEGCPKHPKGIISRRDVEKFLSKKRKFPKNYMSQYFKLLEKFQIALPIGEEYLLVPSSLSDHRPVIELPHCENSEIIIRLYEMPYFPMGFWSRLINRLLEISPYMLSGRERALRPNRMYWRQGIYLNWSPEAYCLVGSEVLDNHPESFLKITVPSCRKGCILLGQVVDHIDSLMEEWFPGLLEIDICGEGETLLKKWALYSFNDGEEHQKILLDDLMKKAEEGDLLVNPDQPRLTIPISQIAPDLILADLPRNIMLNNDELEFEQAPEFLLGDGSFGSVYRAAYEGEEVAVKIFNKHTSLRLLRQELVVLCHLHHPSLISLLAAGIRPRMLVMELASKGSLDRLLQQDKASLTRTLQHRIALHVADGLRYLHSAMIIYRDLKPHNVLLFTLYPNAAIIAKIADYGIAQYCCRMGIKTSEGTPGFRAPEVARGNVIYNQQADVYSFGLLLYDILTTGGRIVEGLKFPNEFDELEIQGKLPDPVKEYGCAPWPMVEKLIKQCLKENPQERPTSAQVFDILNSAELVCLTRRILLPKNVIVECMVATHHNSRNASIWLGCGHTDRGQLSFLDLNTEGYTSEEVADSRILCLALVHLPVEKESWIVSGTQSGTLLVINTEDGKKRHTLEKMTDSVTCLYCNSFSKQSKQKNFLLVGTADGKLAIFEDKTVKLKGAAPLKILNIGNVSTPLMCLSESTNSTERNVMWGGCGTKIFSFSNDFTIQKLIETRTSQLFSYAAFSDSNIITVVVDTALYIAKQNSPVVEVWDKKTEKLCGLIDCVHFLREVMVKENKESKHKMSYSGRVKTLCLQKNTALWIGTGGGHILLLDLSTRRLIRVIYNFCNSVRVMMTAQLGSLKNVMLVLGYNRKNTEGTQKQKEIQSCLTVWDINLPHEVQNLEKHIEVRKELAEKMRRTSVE
The assay can be described thus: Biochemical LRRK2 activity assay (PhosphoSense, AssayQuant SOX peptide AQT0615). As to conditions: for IC50: LRRK2^RCKW kinase activity, in vitro; for normalized response (LRRK2 activity): normalized to 0% (no kinase) and 100% (no inhibitor) control, two singlicate columns per compound. An outline of the steps:
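Controls lacked protein and compound (0%) or compound only (100%). IC50 derived by nonlinear regression of normalized response versus log[inhibitor].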

T2 sequence (Q9Y6E0 whole entry, the tested form may be a part): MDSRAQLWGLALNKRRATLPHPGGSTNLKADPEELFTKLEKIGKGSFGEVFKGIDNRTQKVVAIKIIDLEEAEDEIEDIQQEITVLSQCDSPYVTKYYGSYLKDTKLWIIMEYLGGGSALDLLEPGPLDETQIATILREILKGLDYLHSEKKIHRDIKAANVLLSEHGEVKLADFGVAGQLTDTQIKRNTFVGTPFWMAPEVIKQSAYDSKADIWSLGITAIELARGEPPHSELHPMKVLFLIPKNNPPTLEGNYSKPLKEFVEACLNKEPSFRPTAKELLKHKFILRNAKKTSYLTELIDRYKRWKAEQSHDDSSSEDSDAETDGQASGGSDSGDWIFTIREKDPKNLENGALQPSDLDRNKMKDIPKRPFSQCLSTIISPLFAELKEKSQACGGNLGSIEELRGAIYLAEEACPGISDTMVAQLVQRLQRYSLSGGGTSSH
T1 sequence (O94804 whole entry, the tested form may be a part): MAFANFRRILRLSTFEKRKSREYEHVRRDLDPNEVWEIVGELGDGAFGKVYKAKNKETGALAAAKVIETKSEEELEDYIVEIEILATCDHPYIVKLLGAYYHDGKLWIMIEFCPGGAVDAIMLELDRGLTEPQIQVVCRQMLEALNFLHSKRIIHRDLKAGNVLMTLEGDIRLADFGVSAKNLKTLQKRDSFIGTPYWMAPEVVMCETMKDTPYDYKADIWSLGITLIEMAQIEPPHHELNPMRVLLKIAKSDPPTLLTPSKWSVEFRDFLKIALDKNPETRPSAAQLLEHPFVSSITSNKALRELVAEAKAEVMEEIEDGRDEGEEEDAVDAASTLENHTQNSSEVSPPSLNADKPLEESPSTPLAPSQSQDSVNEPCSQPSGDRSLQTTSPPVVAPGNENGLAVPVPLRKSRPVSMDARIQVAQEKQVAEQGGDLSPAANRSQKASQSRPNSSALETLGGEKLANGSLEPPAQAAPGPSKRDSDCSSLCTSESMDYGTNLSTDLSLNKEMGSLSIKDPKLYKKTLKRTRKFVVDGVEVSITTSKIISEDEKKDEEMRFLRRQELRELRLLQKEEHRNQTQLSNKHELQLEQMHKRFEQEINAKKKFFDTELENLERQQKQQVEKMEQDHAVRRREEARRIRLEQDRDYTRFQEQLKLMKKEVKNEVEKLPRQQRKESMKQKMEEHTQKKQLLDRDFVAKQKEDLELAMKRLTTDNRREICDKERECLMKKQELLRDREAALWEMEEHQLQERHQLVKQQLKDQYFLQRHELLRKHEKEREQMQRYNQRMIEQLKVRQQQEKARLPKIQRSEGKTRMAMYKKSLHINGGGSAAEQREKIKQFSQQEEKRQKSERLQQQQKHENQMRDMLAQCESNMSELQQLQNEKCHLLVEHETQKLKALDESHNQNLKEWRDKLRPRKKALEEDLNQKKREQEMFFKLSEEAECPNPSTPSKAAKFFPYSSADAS

For the molecule `O=C(Nc1cccc(-c2c[nH]c3ncnc(N4CCOCC4)c23)c1)C1(C(=O)Nc2ccc(F)c(Br)c2)CC1` [Compound 19], the dTm in assay [1] was found to be 16.12 K; in assay [2], 3.29 K; in assay [3] it was 11.96 K; in assay [4], 1.71 K. For the same molecule, half-maximal inhibition in assay [5] (IC50) required 264 ± 19 nM. The “normalized response (LRRK2 activity)” value is 3.161% and 1.4% in assay [5] (log[inhibitor(mol)] -4.82391); 3.805% and 3.935% in assay [5] (log[inhibitor(mol)] -5.12494); 9.506% and 13.5388% in assay [5] (log[inhibitor(mol)] -5.60206); 29.4238% and 33.7614% in assay [5] (log[inhibitor(mol)] -6.30103); 67.8273% and 68.8623% in assay [5] (log[inhibitor(mol)] -6.90309); 84.3755% and 91.2634% in assay [5] (log[inhibitor(mol)] -7.30103). Besides, the “normalized response (LRRK2 activity)” value in assay [5] (log[inhibitor(mol)] -7.60206) is 88.4282% and 94.2182%; in assay [5] (log[inhibitor(mol)] -8.09691), 94.3856% and 94.7313%; in assay [5] (log[inhibitor(mol)] -8.61979) it was 99.7343% and 99.0059%; in assay [5] (log[inhibitor(mol)] -9.09691), 100.123% and 100.393%; in assay [5] (log[inhibitor(mol)] -9.39794), 97.0165% and 71.9323%.
As to `Cc1cc(NC(=O)C2(C(=O)Nc3cccc(-c4c[nH]c5ncnc(N6CCOCC6)c45)c3)CC2)ccc1F` [Compound 20], the dTm in assay [1] amounted to 16.12 K; in assay [2], 8.98 K; in assay [3], 13.05 K; in assay [4] it was 7.39 K. This molecule displayed an IC50 in assay [5] of 110 ± 11 nM. Further, the “normalized response (LRRK2 activity)” value in assay [5] (log[inhibitor(mol)] -4.82391) was -5.58% and -14.6884%; in assay [5] (log[inhibitor(mol)] -5.12494) it was -12.9576% and -4.07%; in assay [5] (log[inhibitor(mol)] -5.60206), -8.508% and -7.489%; in assay [5] (log[inhibitor(mol)] -6.90309) it was 42.2259% and 43.1588%; in assay [5] (log[inhibitor(mol)] -7.30103), 74.6695% and 77.6217%; in assay [5] (log[inhibitor(mol)] -7.60206) it was 88.2582% and 90.1977%. The “normalized response (LRRK2 activity)” value in assay [5] (log[inhibitor(mol)] -8.09691) was 89.9215% and 96.544%; in assay [5] (log[inhibitor(mol)] -8.61979), 106.119% and 94.9298%; in assay [5] (log[inhibitor(mol)] -9.09691) it was 105.603% and 97.4708%; in assay [5] (log[inhibitor(mol)] -9.39794), 68.2188% and 102.467%.
Take `COc1cc(NC(=O)C2(C(=O)Nc3cccc(-c4c[nH]c5ncnc(N6CCOCC6)c45)c3)CC2)ccc1F` [Compound 21]: the dTm in assay [1] was determined as 12.16 K; in assay [2], 6.57 K; in assay [3], 11.57 K; in assay [4], 2.83 K. In assay [5], the IC50 amounted to 331 ± 59 nM. The “normalized response (LRRK2 activity)” value in assay [5] (log[inhibitor(mol)] -5.12494) was -8.581% and -13.1049%; in assay [5] (log[inhibitor(mol)] -5.60206), -3.229% and 0.9871%; in assay [5] (log[inhibitor(mol)] -6.30103), 31.841% and 40.7652%; in assay [5] (log[inhibitor(mol)] -6.90309), 74.4117% and 83.0044%; in assay [5] (log[inhibitor(mol)] -7.30103), 89.3998% and 91.1429%; in assay [5] (log[inhibitor(mol)] -7.60206) it was 98.2625% and 97.8145%. The “normalized response (LRRK2 activity)” value in assay [5] (log[inhibitor(mol)] -8.09691) is 90.8667% and 93.1069%; in assay [5] (log[inhibitor(mol)] -8.61979), 91.1981% and 94.2547%; in assay [5] (log[inhibitor(mol)] -9.09691), 94.6536% and 91.2165%; in assay [5] (log[inhibitor(mol)] -9.39794) it was 100.092% and 102.338%.
For `CC(C)(C)c1cccc(NC(=O)C2(C(=O)Nc3cccc(-c4c[nH]c5ncnc(N6CCOCC6)c45)c3)CC2)c1` [Compound 22], the dTm was determined as 15.18 K in assay [1], 0.95 K in assay [2], 6.63 K in assay [3] and 0.19 K in assay [4]. Moreover, in assay [5], the midpoint of inhibition, the IC50, lay at 886 ± 63 nM. In addition, the “normalized response (LRRK2 activity)” value in assay [5] (log[inhibitor(mol)] -4.82391) was 10.3797% and 6.914%; in assay [5] (log[inhibitor(mol)] -5.12494) it was 10.6927% and 10.684%; in assay [5] (log[inhibitor(mol)] -5.60206), 26.6669% and 27.2452%; in assay [5] (log[inhibitor(mol)] -6.30103), 59.6653% and 62.0504%; in assay [5] (log[inhibitor(mol)] -6.90309) it was 86.7302% and 90.6112%; in assay [5] (log[inhibitor(mol)] -7.30103), 94.29% and 100.35%. Besides, the “normalized response (LRRK2 activity)” value in assay [5] (log[inhibitor(mol)] -7.60206) is 102.254% and 104.876%; in assay [5] (log[inhibitor(mol)] -8.09691), 100.313% and 102.032%; in assay [5] (log[inhibitor(mol)] -8.61979), 105% and 108.964%; in assay [5] (log[inhibitor(mol)] -9.09691) it was 105.539% and 102.73%; in assay [5] (log[inhibitor(mol)] -9.39794) it was 104.285% and 104.996%.
Turning to `O=C(Nc1cccc(-c2c[nH]c3ncnc(N4CCOCC4)c23)c1)C1(C(=O)Nc2ccc(F)cc2F)CC1` [Compound 23], the dTm was found to be 9.26 K in assay [1], 5.25 K in assay [2], 7.48 K in assay [3] and 1.28 K in assay [4]. In assay [5], the IC50 stood at 159 ± 0.2 nM. Also, the “normalized response (LRRK2 activity)” value in assay [5] (log[inhibitor(mol)] -4.82391) is -26.6261% and -31.2355%; in assay [5] (log[inhibitor(mol)] -5.12494) it was -19.0277% and -21.4214%; in assay [5] (log[inhibitor(mol)] -5.60206), -16.2351% and -13.5898%; in assay [5] (log[inhibitor(mol)] -6.30103) it was 3.675% and 3.246%; in assay [5] (log[inhibitor(mol)] -6.90309), 59.976% and 57.9812%; in assay [5] (log[inhibitor(mol)] -7.30103) it was 81.7768% and 85.349%. Moreover, the “normalized response (LRRK2 activity)” value in assay [5] (log[inhibitor(mol)] -7.60206) was 93.6348% and 95.0771%; in assay [5] (log[inhibitor(mol)] -8.09691), 95.5743% and 95.9609%; in assay [5] (log[inhibitor(mol)] -8.61979), 101.288% and 95.0587%; in assay [5] (log[inhibitor(mol)] -9.09691), 106.438% and 96.5808%; in assay [5] (log[inhibitor(mol)] -9.39794), 103.437% and 104.087%.
